Among the data in patent US9850283B2, “Macrocyclic inhibitors of the PD-1/PD-L1 and CD80(B7-1)/PD-L1 protein/protein interactions” (BRISTOL-MYERS SQUIBB COMPANY, priority 2013, dated 2017) are IC50 and EC50 values, retold here.

Test [1] addresses T1, Human PD-L1/PD-1 (Homo sapiens, UniProt Q9NZQ7).
T1 construct: made in house; host or cells: HEK293T
The experiment in a line: HTRF PD-1-Ig/PD-L1-His binding assay (human PD-L1). The procedure, abridged:
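Interaction of Fc-tagged soluble PD-1 with His-tagged soluble PD-L1 is monitored by time-resolved FRET. Donor is europium cryptate anti-Ig (1 nM final) and acceptor is APC anti-His (20 nM final). Assay buffer is dPBS with 0.1% BSA and 0.05% Tween-20.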

The test system of test [2] is CMV-specific T cells. As to conditions: read-out: EC50, IFNγ secretion by CMV-specific T cells; FIG. 10A-C.
The target of test [3] is Hu PD-L1/PD-1 (Homo sapiens, UniProt Q9NZQ7). Briefly: Cell binding assay Hu PD-L1/PD-1 (Tables 11-13, cell line not given). It counts as cell-based. As to conditions: Table 11. The procedure, abridged:
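Three formats. In the L2987 imaging assay, natively PD-L1-expressing cells received inhibitor and PE-PD-1-Ig for 1 h at 37 °C, followed by fixation and nuclear Hoechst staining. In the flow-cytometry assays, LK35.2 cells overexpressing hPD-L1 were pre-treated 15 min with inhibitor, then bound 2 nM PE-PD-1-Ig for 1 h at RT in RPMI/2% FCS, while Jurkat-PD-1 cells bound PE-PD-L1-Ig.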

Test [4] has as its target CMV-specific T cells (Homo sapiens, UniProt Q9NZQ7). The experiment in a line: CMV-specific T cell function assay (IFNγ secretion, ELISA). It counts as cell-based. As to conditions: numeric value; read-out: CMV Recall EC50 values. How it is done:
CMV-specific T Cell Function Assay. […] AIM-V medium (Life Technologies, Grand Island, N.Y.) supplemented with 10% heat-inactivated fetal bovine serum (FBS, Sigma, St Louis, Mo.) was used at a total volume of 200 µL/well in triplicate. The cells were cultured for 4 days at 37° C., 5% CO2 at which time culture supernatant was harvested for determination of secreted IFNγ by ELISA (OptEIA hIFNγ ELISA Kit, BD Biosciences, San Jose, Calif.).
In general terms: In an ELISA, binding on a coated surface is turned into a signal by an enzyme label.

The target of test [5] is T2, LK35.2-hPD-L1 cells / PE-labeled PD-1-Ig (Homo sapiens, UniProt Q9NZQ7).
T2 construct: expressed in transfected cells; host or cells: LK35.2 mouse B cell line
Briefly: LK35.2-hPD-L1 cell binding high-content screening assay. It counts as cell-based. As to conditions: cell binding assay, cell line not given; numeric value; read-out: CBA IC50 values. In a few lines: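 Mouse LK35.2 B cells stably over-expressing human PD-L1, cultured overnight, treated with compound plus PE-labeled human PD-1-Ig (1 nM final) in RPMI/10% FCS for 1 h at 37 °C. After washing, bound fluorescence quantified by high-content imaging.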

Where [6] appears, read: Table 6, read-out: HTRF Human PD-L1/PD-1 Binding Assay IC50.
[7] abbreviates: numeric value, read-out: HTRF IC50 values.

Where two headings read alike, the source gives them in different places. Positions of bridges follow the written chain, without caps; N, C: chain ends. Non-standard residues stand in square brackets, D forms with d. Residues, ends and D or L forms follow the SMILES beside them. ξ: configuration not given here. Bta = N[C@@H](Cc1csc2ccccc12)C(=O)O; Hyp = O=C(O)[C@@H]1C[C@@H](O)CN1; NMeNle = CCCC[C@H](NC)C(=O)O; NMeM = CN[C@@H](CCSC)C(=O)O; NMeA = CN[C@@H](C)C(=O)O; Dap = NC[C@H](N)C(=O)O; ξP = O=C(O)C1CCCN1; ξC = NC(CS)C(=O)O; Sar = CNCC(=O)O

T1 sequence (Q9NZQ7 with tags, fused parts or gaps): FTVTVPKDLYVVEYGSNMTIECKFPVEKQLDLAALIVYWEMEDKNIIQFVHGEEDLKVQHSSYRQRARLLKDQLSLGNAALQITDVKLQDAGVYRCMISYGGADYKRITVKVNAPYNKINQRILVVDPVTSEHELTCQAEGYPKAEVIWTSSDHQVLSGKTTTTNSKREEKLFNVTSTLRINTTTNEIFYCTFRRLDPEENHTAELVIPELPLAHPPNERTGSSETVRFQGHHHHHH
Hu PD-L1/PD-1, sequence (Q9NZQ7 19-290): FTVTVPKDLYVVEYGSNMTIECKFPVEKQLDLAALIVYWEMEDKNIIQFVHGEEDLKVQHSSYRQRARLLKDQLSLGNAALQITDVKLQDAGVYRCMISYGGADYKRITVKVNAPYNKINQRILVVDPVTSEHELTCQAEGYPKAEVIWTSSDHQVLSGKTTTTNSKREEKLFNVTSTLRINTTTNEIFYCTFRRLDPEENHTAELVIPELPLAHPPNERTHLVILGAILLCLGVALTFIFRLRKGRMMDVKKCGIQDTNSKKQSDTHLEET
CMV-specific T cells (Homo sapiens, UniProt Q9NZQ7), sequence (Q9NZQ7 19-290): as above
T2 sequence (Q9NZQ7 19-290): as above

Consider `CCCC[C@H]1C(=O)N(C)[C@@H](CCCC)C(=O)N[C@@H](CCCNC(=N)N)C(=O)N[C@H](C(=O)NCC(N)=O)CSCC(=O)N[C@@H](Cc2ccccc2)C(=O)N(C)[C@@H](C)C(=O)N[C@@H](CC(N)=O)C(=O)N2CCCC2C(=O)N[C@@H](Cc2cnc[nH]2)C(=O)N[C@@H](CC(C)C)C(=O)N(C)CC(=O)N[C@@H](Cc2c[nH]c3ccccc23)C(=O)N[C@@H](CO)C(=O)N[C@@H](Cc2c[nH]c3ccccc23)C(=O)N1C` (stereo partly drawn) [Compound No. 1] ({CH2CO}-F[NMeA]N[ξP]HL[Sar]WSW[NMeNle][NMeNle]RCG-NH2; thioether N-14), for which the IC50 in test [1] (setting [6]) was 9 nM; in test [1] (Table 8, Compound No. 1 variant macrocyclic peptides, read-out: HTRF Human PD-L1/PD-1 Binding Assay IC50), 9 nM. For the same compound, the 50% effective concentration (EC50) in test [2] worked out at 400 nM.
`CCCC[C@H]1C(=O)N(C)[C@@H](CCCC)C(=O)N[C@@H](CC(C)C)C(=O)N[C@H](C(=O)NCC(N)=O)CSCC(=O)N[C@@H](Cc2ccccc2)C(=O)N(C)[C@@H](C)C(=O)N[C@@H](CC(N)=O)C(=O)N2CCCC2C(=O)N[C@@H](Cc2cnc[nH]2)C(=O)N[C@@H](Cc2c[nH]cn2)C(=O)N[C@@H](CO)C(=O)N[C@@H](Cc2c[nH]c3ccccc23)C(=O)N[C@@H](CCCNC(=N)N)C(=O)N[C@@H](Cc2c[nH]c3ccccc23)C(=O)N1C` (stereo partly drawn) [Compound No. 2] ({CH2CO}-F[NMeA]N[ξP]HHSWRW[NMeNle][NMeNle]LCG-NH2; thioether N-14) had an IC50 in test [3] of 43 nM. The half-maximal effective concentration (EC50) in test [2] was 400 nM.
As to `CCCC[C@H]1C(=O)N(C)CC(=O)N[C@@H](CC(=O)O)C(=O)N[C@@H](C(C)C)C(=O)N(C)[C@@H](Cc2ccccc2)C(=O)N[C@@H](Cc2ccc(O)cc2)C(=O)N(C)CC(=O)N[C@@H](Cc2c[nH]c3ccccc23)C(=O)N[C@@H](Cc2ccc(O)cc2)C(=O)N[C@@H](CC(C)C)C(=O)N[C@H](C(=O)NCC(N)=O)CSCC(=O)N[C@@H](Cc2ccccc2)C(=O)N(C)[C@@H](Cc2ccccc2)C(=O)N1C` [Compound No. 71] (HELM PEPTIDE1{[O=C(C[*:3])[*:2]].F.[meF].[CCCC[C@@H](C(=O)[*:2])N(C)[*:1]].[Sar].D.V.[meF].Y.[Sar].W.Y.L.C.G.[am]}$PEPTIDE1,PEPTIDE1,1:R3-14:R3$$$V2.0), the IC50 in test [1] (setting [6]) stood at 7 nM; in test [1] (Table 9, Compound No. 71 variant macrocyclic peptides, read-out: HTRF Human PD-L1/PD-1 Binding Assay IC50), 7 nM; in test [3], 10 nM. In test [2], the half-maximal effective concentration (EC50) is 300 nM.
As to `CC[C@H](C)[C@@H]1NC(=O)[C@H](CC(C)C)NC(=O)[C@H](Cc2ccccc2)NC(=O)CSC[C@@H](C(=O)NCC(N)=O)NC(=O)[C@H](CCCNC(=N)N)NC(=O)[C@H](Cc2ccccc2)NC(=O)[C@H](C(C)C)NC(=O)[C@H](CCCNC(=N)N)NC(=O)[C@H](CC(=O)O)NC(=O)[C@H](CCCNC(=N)N)NC(=O)[C@H]([C@@H](C)CC)NC(=O)[C@H](C(C)C)NC1=O` [Compound No. 99] (HELM PEPTIDE1{[O=C(C[*:3])[*:2]].F.L.I.V.I.R.D.R.V.F.R.C.G.[am]}$PEPTIDE1,PEPTIDE1,1:R3-13:R3$$$V2.0), the IC50 stood at 153 nM in test [1] (setting [6]) and 153 nM in test [1] (Table 7, Compound No. 99 variant macrocyclic peptides, read-out: HTRF Human PD-L1/PD-1 Binding Assay IC50). The EC50 in test [2] is greater than 10000 nM.
On to `CCCC[C@H]1C(=O)N(C)[C@@H](CCCC)C(=O)N[C@@H](CCCNC(=N)N)C(=O)NC(C(=O)NCC(N)=O)CSCC(=O)N[C@@H](Cc2ccc(O)cc2)C(=O)N(C)[C@@H](C)C(=O)N[C@@H](CC(N)=O)C(=O)N2CCC[C@H]2C(=O)N[C@@H](Cc2cnc[nH]2)C(=O)N[C@@H](CO)C(=O)N2CCC[C@H]2C(=O)N[C@@H](Cc2c[nH]c3ccccc23)C(=O)N[C@@H](CO)C(=O)N[C@@H](Cc2csc3ccccc23)C(=O)N1C` (stereo partly drawn) [Example 9068] ({CH2CO}-Y[NMeA]NPHSPWS[Bta][NMeNle][NMeNle]R[ξC]G-NH2; thioether N-14), for which the IC50 in test [1] (setting [7]) was 0.385 nM; in test [5], 2.05 nM. Moreover, in test [4], the EC50 turned out to be 249 nM.
With `CCCC[C@H]1C(=O)N[C@@H](CCCNC(=N)N)C(=O)NC(C(=O)NCC(N)=O)CSCC(=O)N[C@@H](Cc2ccc(O)cc2)C(=O)N(C)[C@@H](C)C(=O)N[C@@H](CC(N)=O)C(=O)N2CCC[C@H]2C(=O)N[C@@H](CN)C(=O)N[C@@H](CC(C)C)C(=O)N2C[C@H](O)C[C@H]2C(=O)N[C@@H](Cc2c[nH]c3ccccc23)C(=O)N[C@@H](CO)C(=O)N[C@@H](Cc2c[nH]c3ccccc23)C(=O)N(C)[C@@H](CCSC)C(=O)N1C` (stereo partly drawn) [Example 9091] ({CH2CO}-Y[NMeA]NP[Dap]L[Hyp]WSW[NMeM][NMeNle]R[ξC]G-NH2; thioether N-14), the IC50 in test [1] (setting [7]) came out at 774 nM; in test [5] it was 3.03 nM. Moreover, the EC50 in test [4] was 5.6 nM.

As usually defined, the EC50 is the concentration giving half of the maximal effect.
